Reference: PubChem BioAssay AID977605 (Broad Institute, 2014)
Calls of active or inactive are those of the source.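 The calls were made as follows: active = fitted curve reaches 40% activation below the top valid tested dose, in every test run; inconclusive = test runs disagree on the call; inactive = the rest, including effects opposite to the expected direction.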

Assays:
[1] = tested on: HUVEC E-selectin immunostaining, imaging, 16 h; test: E-selectin inducers in HUVECs, dose response, imaging, HUVEC, cherry-picked samples (AID 977605);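 also: signal is the share of imaged cells scored positive for E-selectin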
[2] = as above; conditions: HUVEC E-selectin immunostaining, percent of TNF-alpha response over vehicle

With `COc1ccc(S(=O)(=O)N(C)C[C@@H]2OCCCC[C@H](C)Oc3ccc(NC(=O)Nc4cccc5ccccc45)cc3C(=O)N([C@H](C)CO)C[C@H]2C)cc1` the AC40 [1] was 17.7 µM.
Molecule `CO[C@@H]1CN(C)C(=O)c2ccc(NC(=O)Nc3ccc(F)cc3)cc2OC[C@@H](C)N(C(=O)c2ccc(F)cc2)C[C@H]1C` has an AC40 [1] of 12.4 µM.
Molecule `FC(F)(F)c1ccc2c(c1)N1CCCC1CN2` (stereo unspecified) has an AC40 [1] of 7.71 µM.
Molecule `Cc1cc2c(SCc3ccccc3Cl)nc(N)nc2nc1C` has an AC40 [1] of 11.4 µM.
With `COc1ccc(CNC(=O)c2cc3c(c(-c4cccc(-c5cccc(C#N)c5)c4)n2)[C@H](CCO)N([S@@](=O)C(C)(C)C)C3)cc1` the AC40 [1] was 19.4 µM.
Molecule `Cc1cc2cc(CNC(=O)Nc3ccc(Cl)c(Cl)c3)ccc2n1C` has an AC40 [1] of 10.1 µM.
`CC(C)(C)[S@](=O)N1Cc2cc(C(=O)N[C@H]3CCN(Cc4ccccc4)C3)nc(-c3cccc(-c4ccncc4)c3)c2[C@@H]1CCO` showed an AC40 [1] of 13.2 µM.
Molecule `COc1cccc(CNC(=O)c2cc3c(c(-c4cccc(-c5ccc(C#N)cc5)c4)n2)[C@H](CCO)N([S@@](=O)C(C)(C)C)C3)c1` has an AC40 [1] of 14.7 µM.
Work on `Cc1cc(C)c(S(=O)(=O)NCCn2c(C)cc3ccccc32)c(C)c1` yielded an AC40 [1] of 14.3 µM.
In the case of `Cc1cccc(-c2cc(N3CCCN(C)CC3)n3nccc3n2)c1`, the AC40 [1] is reported as 5.24 µM.
`O=C(C[C@@H]1CC[C@H]2[C@@H](COC[C@H](O)CN2C(=O)c2ccc(F)cc2)O1)Nc1ccc(-c2ccccc2)cc1` gave an AC40 [1] of 8 µM.
Molecule `Cc1ccc(S(=O)(=O)NCc2ccc3c(c2)cc(C)n3C)cc1` has an AC40 [1] of 13.6 µM.
In the case of `Cc1cc2ccccc2n1CCNC(=O)COc1ccc2ccccc2c1`, the AC40 [1] is reported as 11.3 µM.
Work on `COc1ccc(NC(=O)N(C)C[C@H]2Oc3ccc(NS(=O)(=O)c4cccs4)cc3C(=O)N([C@H](C)CO)C[C@@H]2C)cc1` yielded an AC40 [1] of 17.7 µM.
Molecule `Cc1cc2cc(CNC(=O)Nc3cccc(Cl)c3)ccc2n1C` has an AC40 [1] of 10.8 µM.
With `COc1ccc(Nc2ccccc2N)cc1` the AC40 [1] was 5.67 µM.
In the case of `Cc1cccc(NC(=O)NCc2ccc3c(c2)cc(C)n3C)c1`, the AC40 [1] is reported as 12 µM.
For `COc1cccc(NC(=O)C2C3C=CC4(O3)C2C(=O)N(CCCN2CCCCC2)C4C(=O)NC2CCCCC2)c1` (stereo unspecified), the activation ([2]; at 19.5 µM (top of the series)) was 1.56% (inactive).
With `COc1ccc(NC(=O)N(C)C[C@H]2Oc3ccc(NC(=O)c4ccncc4)cc3CC(=O)N([C@H](C)CO)C[C@H]2C)cc1` the activation ([2]; at 19.5 µM (top of the series)) was -0.01% (inactive).
For `CCCCCCOc1ccc(C(CC(N)=O)C(=O)O)cc1` (stereo unspecified), the activation ([2]; at 19.5 µM (top of the series)) was -0.269% (inactive).
In the case of `Cc1noc(C)c1NC(=O)N(C)C[C@@H]1Oc2ccc(NS(=O)(=O)c3cccs3)cc2CC(=O)N([C@H](C)CO)C[C@H]1C`, the activation ([2]; at 19.5 µM (top of the series)) is reported as -0.165% (inactive).
With `C[C@H](CO)N1C[C@H](C)[C@@H](CN(C)C)Oc2cc(C#Cc3ccccc3F)ccc2S1(=O)=O` the activation ([2]; at 19.5 µM (top of the series)) was 0.115% (inactive).
In the case of `CCCC#Cc1ccc2c(c1)O[C@@H](CN(C)C(=O)c1ccncc1)[C@H](C)CN([C@@H](C)CO)S2(=O)=O`, the activation ([2]; at 19.5 µM (top of the series)) is reported as -0.24% (inactive).
With `C[C@@H]1CN([C@H](C)CO)C(=O)c2cccc(NC(=O)Nc3ccc(C(F)(F)F)cc3)c2O[C@@H]1CN(C)S(=O)(=O)c1cccs1` the activation ([2]; at 19.5 µM (top of the series)) was -0.223% (inactive).
For `CC(=O)Nc1ccc(S(=O)(=O)NNc2cccc(C)c2)cc1`, the activation ([2]; at 19.5 µM (top of the series)) was 0.281% (inactive).
With `C[C@H](CO)N1C[C@H](C)[C@H](CN(C)C(=O)Nc2cccc3ccccc23)Oc2ccc(NS(C)(=O)=O)cc2C1=O` the activation ([2]; at 19.5 µM (top of the series)) was 0.267% (inactive).
In the case of `CN(CC(=O)Nc1cccc(F)c1)CC(=O)N1CCc2ccccc21`, the activation ([2]; at 19.5 µM (top of the series)) is reported as 0.11% (inactive).
With `C[C@@H]1CN([C@H](C)CO)C(=O)c2cc(NS(=O)(=O)c3ccccc3)ccc2O[C@H]1CN(C)C(=O)NC1CCCCC1` the activation ([2]; at 19.5 µM (top of the series)) was 0.289% (inactive).
In the case of `COc1ccc(S(=O)(=O)Nc2ccc3c(c2)C(=O)N([C@@H](C)CO)C[C@@H](C)[C@@H](CN(C)Cc2ccc(Cl)c(Cl)c2)O3)cc1`, the activation ([2]; at 21 µM (top of the series)) is reported as -0.053% (inactive).
With `COc1cc(OC)cc(N(C(=O)c2snc(C(N)=O)c2N)C(C(=O)NCC2CCCO2)c2ccc(C)o2)c1` (stereo unspecified) the activation ([2]; at 19.5 µM (top of the series)) was -0.112% (inactive).
For `C[C@@H]1CN([C@H](C)CO)C(=O)c2cc(NC(=O)CCC(F)(F)F)ccc2O[C@@H]1CN(C)Cc1ccc(C(F)(F)F)cc1`, the activation ([2]; at 19.5 µM (top of the series)) was 0.048% (inactive).
